Source: the NIST ThermoML archive (doi:10.1016/j.jct.2009.07.002)

Assay: isobaric coefficient of expansion
Details: Liquid, DSC with Pressure Shift

CCCCCCCCO [octan-1-ol]
isobaric coefficient of expansion
Details | 278.15 K | 288.15 K | 298.15 K | 308.15 K | 318.15 K | 328.15 K | 338.15 K | 348.15 K
5000 kPa | 0.000816 1/K | 0.000817 1/K | 0.000818 1/K | 0.00084 1/K | 0.000859 1/K | 0.000877 1/K | 0.0009 1/K | 0.000928 1/K
10000 kPa | 0.000798 1/K | 0.000793 1/K | 0.000799 1/K | 0.000821 1/K | 0.000837 1/K | 0.00085 1/K | 0.000873 1/K | 0.000896 1/K
15000 kPa | 0.00078 1/K | 0.000774 1/K | 0.000784 1/K | 0.000801 1/K | 0.000815 1/K | 0.000827 1/K | 0.000845 1/K | 0.000865 1/K
20000 kPa | 0.000755 1/K | 0.000761 1/K | 0.000764 1/K | 0.000783 1/K | 0.000793 1/K | 0.000805 1/K | 0.000822 1/K | 0.000843 1/K
25000 kPa | 0.000742 1/K | 0.000746 1/K | 0.000749 1/K | 0.000762 1/K | 0.000775 1/K | 0.000787 1/K | 0.000801 1/K | 0.000821 1/K
30000 kPa | 0.00073 1/K | 0.000732 1/K | 0.000736 1/K | 0.000746 1/K | 0.000758 1/K | 0.000767 1/K | 0.000783 1/K | 0.0008 1/K
35000 kPa | 0.000717 1/K | 0.000715 1/K | 0.000724 1/K | 0.00073 1/K | 0.000742 1/K | 0.000751 1/K | 0.000766 1/K | 0.00078 1/K
40000 kPa | 0.000704 1/K | 0.000707 1/K | 0.000714 1/K | 0.000716 1/K | 0.000727 1/K | 0.000735 1/K | 0.000746 1/K | 0.000762 1/K
45000 kPa | 0.00069 1/K | 0.000692 1/K | 0.000698 1/K | 0.000702 1/K | 0.000711 1/K | 0.000719 1/K | 0.000731 1/K | 0.000745 1/K
50000 kPa | 0.000683 1/K | 0.000681 1/K | 0.000687 1/K | 0.000692 1/K | 0.000698 1/K | 0.000705 1/K | 0.000717 1/K | 0.000731 1/K
55000 kPa | 0.000673 1/K | 0.000671 1/K | 0.000676 1/K | 0.000678 1/K | 0.000688 1/K | 0.000692 1/K | 0.000705 1/K | 0.000717 1/K

CCC(O)CC [3-pentanol]
isobaric coefficient of expansion
Details | 278.15 K | 288.15 K | 298.15 K | 308.15 K | 318.15 K | 328.15 K | 338.15 K | 348.15 K
5000 kPa | 0.000898 1/K | 0.000935 1/K | 0.000971 1/K | 0.00101 1/K | 0.00106 1/K | 0.00109 1/K | 0.00115 1/K | 0.0012 1/K
10000 kPa | 0.000875 1/K | 0.000916 1/K | 0.000952 1/K | 0.00099 1/K | 0.00103 1/K | 0.00107 1/K | 0.00113 1/K | 0.00117 1/K
15000 kPa | 0.000861 1/K | 0.000898 1/K | 0.000935 1/K | 0.00097 1/K | 0.00101 1/K | 0.00104 1/K | 0.0011 1/K | 0.00113 1/K
20000 kPa | 0.00085 1/K | 0.000882 1/K | 0.000917 1/K | 0.000953 1/K | 0.000989 1/K | 0.00103 1/K | 0.00107 1/K | 0.00111 1/K
25000 kPa | 0.000826 1/K | 0.000868 1/K | 0.000899 1/K | 0.000934 1/K | 0.00097 1/K | 0.00101 1/K | 0.00105 1/K | 0.00108 1/K
30000 kPa | 0.000814 1/K | 0.00085 1/K | 0.00088 1/K | 0.000919 1/K | 0.000952 1/K | 0.000983 1/K | 0.00102 1/K | 0.00106 1/K
35000 kPa | 0.000802 1/K | 0.000837 1/K | 0.000866 1/K | 0.000899 1/K | 0.000932 1/K | 0.000965 1/K | 0.001 1/K | 0.00103 1/K
40000 kPa | 0.000799 1/K | 0.000823 1/K | 0.000852 1/K | 0.000888 1/K | 0.000914 1/K | 0.000949 1/K | 0.000976 1/K | 0.00101 1/K
45000 kPa | 0.000766 1/K | 0.000807 1/K | 0.000839 1/K | 0.000869 1/K | 0.000897 1/K | 0.00093 1/K | 0.000953 1/K | 0.000986 1/K
50000 kPa | 0.000769 1/K | 0.000792 1/K | 0.000822 1/K | 0.000852 1/K | 0.000879 1/K | 0.000907 1/K | 0.000931 1/K | 0.00096 1/K
55000 kPa | 0.000743 1/K | 0.000771 1/K | 0.000806 1/K | 0.000837 1/K | 0.000862 1/K | 0.000887 1/K | 0.00091 1/K | 0.000936 1/K

CCCCCO [pentan-1-ol]
isobaric coefficient of expansion
Details | 278.15 K | 288.15 K | 298.15 K | 308.15 K | 318.15 K | 328.15 K | 338.15 K | 348.15 K
5000 kPa | 0.000863 1/K | 0.000873 1/K | 0.000889 1/K | 0.000908 1/K | 0.000934 1/K | 0.00096 1/K | 0.001 1/K | 0.00105 1/K
10000 kPa | 0.000833 1/K | 0.00085 1/K | 0.000864 1/K | 0.000883 1/K | 0.000904 1/K | 0.00093 1/K | 0.000961 1/K | 0.001 1/K
15000 kPa | 0.000826 1/K | 0.000831 1/K | 0.000847 1/K | 0.00086 1/K | 0.000879 1/K | 0.000899 1/K | 0.000927 1/K | 0.00096 1/K
20000 kPa | 0.000805 1/K | 0.000813 1/K | 0.000825 1/K | 0.000838 1/K | 0.000853 1/K | 0.000873 1/K | 0.000899 1/K | 0.000927 1/K
25000 kPa | 0.000788 1/K | 0.000795 1/K | 0.000805 1/K | 0.000816 1/K | 0.00083 1/K | 0.000849 1/K | 0.000874 1/K | 0.000899 1/K
30000 kPa | 0.000778 1/K | 0.000779 1/K | 0.000788 1/K | 0.000796 1/K | 0.000814 1/K | 0.000827 1/K | 0.000847 1/K | 0.000871 1/K
35000 kPa | 0.000752 1/K | 0.000761 1/K | 0.000772 1/K | 0.00078 1/K | 0.000794 1/K | 0.000809 1/K | 0.000828 1/K | 0.000849 1/K
40000 kPa | 0.000742 1/K | 0.000747 1/K | 0.000757 1/K | 0.000763 1/K | 0.000776 1/K | 0.00079 1/K | 0.000806 1/K | 0.000826 1/K
45000 kPa | 0.000735 1/K | 0.000735 1/K | 0.000741 1/K | 0.000748 1/K | 0.000759 1/K | 0.000772 1/K | 0.000786 1/K | 0.000807 1/K
50000 kPa | 0.000719 1/K | 0.000724 1/K | 0.000729 1/K | 0.000734 1/K | 0.000745 1/K | 0.000755 1/K | 0.000773 1/K | 0.000787 1/K
55000 kPa | 0.000714 1/K | 0.000713 1/K | 0.000717 1/K | 0.000721 1/K | 0.000731 1/K | 0.00074 1/K | 0.000755 1/K | 0.000768 1/K
